pIC50: −log10 of the molar value. Values joined by “and” are separate entries in the source; they are usually repeats but may differ in a detail not shown here. Equal entries are not always repeated.
Key:
[1] = system: AKR1C protein in LS174 cells; assay: AKR1C protein in LS174 cells; assay type: cell-based, human; conditions: data not shown
[2] = system: AKR1C protein in Caco-2 cells; assay: AKR1C protein in Caco-2 cells (Western blotting); assay type: cell-based, human; conditions: 24 hrs
Procedure: (§1) Method: AREc32 cells were seeded out in 96 well plates and treated with DMSO (control), tBHQ (50 μM), tBHQ+BTB09463 (5 μM) or tBHQ+Retinoic acid (1 μM). After 24 hours incubation, cells were washed and lysed before measuring luciferase activity. BTB09463 is 1-{4-[(3,4-dichlorobenzyl)oxy]phenyl}ethan-1-one. […] Method: AREc32 cells were seeded out in 96 well plates and dosed with BTB09463 (2.5, 5 or 10 μM) for 0, 24 or 48 hrs before treatment with tBHQ (50 μM). 24 hours after the addition of tBHQ, cells were washed and lysed before measuring luciferase activity. […] Method: ARE c32 cells were seeded out in 96 well plates and treated with DMSO (control), tBHQ (50 μM), tBHQ+retinoid (0.25, 0.5 and 1 μM). After 24 hours incubation, cells were washed and lysed before measuring luciferase activity. […] See FIG. 16 Method: A. Caco-2 cells were treated with the known ARE-gene inducer sulforaphane (5 μM), either alone or concomitantly with BTB09463 (5 μM) or Retinoic acid (1 μM). After 24 hrs, cell lysates were prepared and Western blotting performed to measure the levels of AKR1C protein. B. MCF7 cells were treated with sulforaphane (5 μM), either alone or concomitantly with BTB09463 (5 μM). After 24 hrs, cell lysates were prepared and Western blots performed to detect the levels of AKR1C and NQO1; GAPDH was used as a loading control in MCF7 cells. […] Method: Caco-2 cells were treated with DMSO (control), BTB09463 (5 μM), sulforaphane (5 μM) or a combination of sulforaphane plus BTB09463. After 24 hrs treatment, cells were harvested and RNA isolated. cDNA for each sample was generated by reverse transcription and subsequently used in real time PCR analysis of gene transcription (TaqMan analysis) for the ARE-driven genes AKR1C1 and NQO1. Data was normalised to the internal control 18S RNA and the relative levels of AKR1C1 and NQO1 calculated using the comparative CT method. […] Method: MCF7 cells were treated with the known ARE-gene inducer sulforaphane (5 μM), either alone or with various retinoids (0.5 μM). After 24 hrs, cell lysates were prepared and Western blots were performed to detect the levels of AKR1C protein present. […] See FIG. 19 Method: ARE reporter cell line AREc23 was seeded into 96 well plates and treated with a previously determined non-toxic concentration of cytotoxic drug. After 24 hours incubation, cells were washed and lysed before measuring luciferase activity. […] See FIG. 20a Method: ARE reporter cell line AREc23 was seeded into 96 well plates and treated with DMSO (control), Carmustine (100 μM), Carmustine+BTB09463 (5 μM) or Carmustine+Retinoic acid (5 μM) After 24 hours incubation, cells were washed and lysed before measuring luciferase activity. […] After 24 hours incubation, cells were washed and lysed before measuring luciferase activity. […]

MCF7 cells = assay: cells; assay type: cell-based; conditions: Homo sapiens, single agent
[3] = system: AKR1C1, NQO1, GCLC, GCLM mRNA in A549 cells; assay: Constitutive mRNA of ARE-driven genes in A549 cells (Taqman); assay type: cell-based, human; conditions: 24 hrs
[4] = system: AKR1C and NQO1 protein in MCF7 cells; assay: AKR1C and NQO1 protein in MCF7 cells (Western blots); assay type: cell-based, human; conditions: 24 hrs
Procedure: Method: AREc32 cells were seeded out in 96 well plates and treated with DMSO (control), tBHQ (50 μM), tBHQ+BTB09463 (5 μM) or tBHQ+Retinoic acid (1 μM). After 24 hours incubation, cells were washed and lysed before measuring luciferase activity. BTB09463 is 1-{4-[(3,4-dichlorobenzyl)oxy]phenyl}ethan-1-one. […] Method: AREc32 cells were seeded out in 96 well plates and dosed with BTB09463 (2.5, 5 or 10 μM) for 0, 24 or 48 hrs before treatment with tBHQ (50 μM). 24 hours after the addition of tBHQ, cells were washed and lysed before measuring luciferase activity. […] Method: ARE c32 cells were seeded out in 96 well plates and treated with DMSO (control), tBHQ (50 μM), tBHQ+retinoid (0.25, 0.5 and 1 μM). After 24 hours incubation, cells were washed and lysed before measuring luciferase activity. […] See FIG. 16 Method: A. Caco-2 cells were treated with the known ARE-gene inducer sulforaphane (5 μM), either alone or concomitantly with BTB09463 (5 μM) or Retinoic acid (1 μM). After 24 hrs, cell lysates were prepared and Western blotting performed to measure the levels of AKR1C protein. B. MCF7 cells were treated with sulforaphane (5 μM), either alone or concomitantly with BTB09463 (5 μM). After 24 hrs, cell lysates were prepared and Western blots performed to detect the levels of AKR1C and NQO1; GAPDH was used as a loading control in MCF7 cells. […] Method: Caco-2 cells were treated with DMSO (control), BTB09463 (5 μM), sulforaphane (5 μM) or a combination of sulforaphane plus BTB09463. After 24 hrs treatment, cells were harvested and RNA isolated. cDNA for each sample was generated by reverse transcription and subsequently used in real time PCR analysis of gene transcription (TaqMan analysis) for the ARE-driven genes AKR1C1 and NQO1. Data was normalised to the internal control 18S RNA and the relative levels of AKR1C1 and NQO1 calculated using the comparative CT method. […] Method: MCF7 cells were treated with the known ARE-gene inducer sulforaphane (5 μM), either alone or with various retinoids (0.5 μM). After 24 hrs, cell lysates were prepared and Western blots were performed to detect the levels of AKR1C protein present. […] See FIG. 19 Method: ARE reporter cell line AREc23 was seeded into 96 well plates and treated with a previously determined non-toxic concentration of cytotoxic drug. After 24 hours incubation, cells were washed and lysed before measuring luciferase activity. […] See FIG. 20a Method: ARE reporter cell line AREc23 was seeded into 96 well plates and treated with DMSO (control), Carmustine (100 μM), Carmustine+BTB09463 (5 μM) or Carmustine+Retinoic acid (5 μM) After 24 hours incubation, cells were washed and lysed before measuring luciferase activity. […] After 24 hours incubation, cells were washed and lysed before measuring luciferase activity. B. Modified repeat of experiment A, with cells being pretreated with L-buthionine-(SR)-sulfoximine (BSO), an inhibitor of enzymes in the glutathione synthesis pathway. After 24 hours incubation, cells were washed and lysed before measuring luciferase activity. […] Method: Caco-2 cells were treated for 24 hrs with DMSO (control), Carmustine (100 μM), Carmustine+BTB09463 (5 μM). After 24 hrs, cell lysates were prepared and Western blots to detect the levels of AKR1C. […] Method: MCF7 cells were treated for 24 hrs with DMSO (control; Lane 1), Sulforaphane (5 μM) (Lane 2), Carmustine (100 μM) (Lane 3), Carmustine+BTB09463 (5 μM) (Lane 5). (Lane 4 represents experimental conditions irrelevant to the application). After 24 hrs, cell lysates were prepared and Western blots to detect the levels of Nrf2, NQO1 and AKR1C proteins.

A549 cells = assay: Cytotoxicity in A549 cells (ATP levels, 72 h); assay type: cell-based, human; conditions: Homo sapiens, single agent
[5] = system: AKR1C1 and NQO1 mRNA in Caco-2 cells; assay: AKR1C1 and NQO1 mRNA in Caco-2 cells (TaqMan); assay type: cell-based, human; conditions: sulforaphane 5 μM + BTB09463 5 μM, 24 hrs
Procedure: as §1

[6] = system: ARE-driven luciferase activity in AREc32 cells; assay: Antagonism of induced ARE-driven luciferase activity in AREc32 cells; assay type: cell-based, human
[7] = system: ARE reporter system in Hepa1 cells; assay: Transient pGL-GSTA2.41bp-ARE luciferase reporter in Hepa1 cells; conditions: 50 μM tBHQ
Procedure: (§2) The Dual-luciferase Reporter Assay System (Promega) was used to examine reporter gene activity in transiently transfected cells. Briefly, cells were seeded at a density of 2×10^5 cells/well in 24-well plates and grown in the appropriate medium. After overnight incubation, the cells were transiently transfected with various ARE-luciferase reporter plasmids. The plasmid pRL-TK, encoding Renilla luciferase was used to control for transfection efficiency. Transfections were performed using Lipofectamine 2000 Reagent (Lifer Technologies Inc. Ltd., Coventry, UK) according to the manufacture's instructions. Following transfection, the culture medium was replaced 24 h later with fresh growth medium containing 50 μM tBHQ (in a solution giving a final concentration of 0.1% v/v dimethyl sulfoxide (DMSO)), which was prepared immediately before each experiment. For control experiments, vehicle alone (0.1% v/v DMSO) was added to the growth medium. Cells were left for 24 h to respond to xenobiotics before being harvested and the firefly and Renilla luciferase activities in cell lysates were measured using a luminometer (Turner Designs Model TD-20/20, Promega) following addition of Luciferase Assay Reagent II (Promega). […] The relative luciferase activity was calculated by normalizing firefly luciferase activity to that of Renilla luciferase. […]

[8] = system: ARE reporter system in CHO cells; assay: Transient pGL-GSTA2.41bp-ARE luciferase reporter in CHO cells; conditions: 50 μM tBHQ
Procedure: as §2

[9] = system: ARE reporter system in HepG2 cells; assay: Transient pGL-GSTA2.41bp-ARE luciferase reporter in HepG2 cells; conditions: 50 μM tBHQ
Procedure: as §2

[10] = system: AKR1C mRNA in AREc32 cells; assay: AKR1C mRNA in AREc32 cells (TaqMan); conditions: 10 μM tBHQ, 24 h
[11] = system: ARE-green fluorescent protein (GFP) reporter HepG2 cell line; conditions: 90 μM tBHQ; HepG2/GFP-B; cited from earlier work
[12] = system: ARE-driven luciferase activity in AREc32 cells; assay: Induction of ARE-driven luciferase activity in stable AREc32 reporter cells; assay type: cell-based, human
[13] = system: ARE reporter system in MCF7 cells; assay: Transient pGL-GSTA2.41bp-ARE luciferase reporter in MCF7 cells
Procedure: The Dual-luciferase Reporter Assay System (Promega) was used to examine reporter gene activity in transiently transfected cells. Briefly, cells were seeded at a density of 2×10^5 cells/well in 24-well plates and grown in the appropriate medium. After overnight incubation, the cells were transiently transfected with various ARE-luciferase reporter plasmids. The plasmid pRL-TK, encoding Renilla luciferase was used to control for transfection efficiency. Transfections were performed using Lipofectamine 2000 Reagent (Lifer Technologies Inc. Ltd., Coventry, UK) according to the manufacture's instructions. Following transfection, the culture medium was replaced 24 h later with fresh growth medium containing 50 μM tBHQ (in a solution giving a final concentration of 0.1% v/v dimethyl sulfoxide (DMSO)), which was prepared immediately before each experiment. For control experiments, vehicle alone (0.1% v/v DMSO) was added to the growth medium. Cells were left for 24 h to respond to xenobiotics before being harvested and the firefly and Renilla luciferase activities in cell lysates were measured using a luminometer (Turner Designs Model TD-20/20, Promega) following addition of Luciferase Assay Reagent II (Promega). After quenching the reaction, the Renilla luciferase reaction was initiated by adding Stop & Glo Reagent (Promega). The relative luciferase activity was calculated by normalizing firefly luciferase activity to that of Renilla luciferase.
In order to choose an appropriate cell system for the generation of a stable reporter cell line, pGL-GSTA2.41 bp-ARE was transfected into HepG2, MCF7, CHO, Hepa1 cells.

[14] = Carmustine 100 μM + BTB09463 5 μM
[15] = HepG2 cells treated with DMSO set at 1

CC(=O)c1ccc(OCc2ccc(Cl)c(Cl)c2)cc1 [BTB09463, 1-{4-[(3,4-dichlorobenzyl)oxy]phenyl}ethan-1-one]
carmustine induction of AKR1C protein [1]: reproduced in LS174 cells | carmustine induction of AKR1C protein [2, 14]: attenuated | sulforaphane induction of AKR1C protein ([2]; sulforaphane 5 μM, BTB09463 5 μM or Retinoic acid 1 μM): dramatically reduced | pIC50 (MCF7 cells): 4.55 | constitutive expression of AKR1C1 mRNA ([3]; BTB09463 1, 5, 20, 40 μmol/l or retinoids 0.050, 0.20, 0.50, 2.0 μmol/l): inhibited the constitutive expression of AKR1C1 in a concentration-dependent manner | constitutive mRNA levels of NQO1, GCLC and GCLM ([3]; BTB09463 1-40 μmol/l or retinoic acid 0.050-2.0 μmol/l): repressed the constitutive mRNA levels of NQO1, GCLC and GCLM in a concentration-dependent manner | carmustine over expression of AKR1C and NQO1 protein [4, 14]: attenuated | sulforaphane-driven induction of NQO1 and AKR1C protein ([4]; sulforaphane 5 μM + BTB09463 5 μM): potently inhibited | pIC50 (A549 cells): 4.28 | reduction of sulforaphane-induced AKR1C1 mRNA [5]: 50% | sulforaphane-induced NQO1 mRNA expression [5]: reduced to basal levels | suppression of tBHQ induction of luciferase ([6]; 50 μM tBHQ + 5 μM BTB09463, 24 h): approximately 65% | suppression of tBHQ-mediated induction of luciferase expression, by dosing regimen ([6]; BTB09463 2.5, 5 or 10 μM for 0, 24 or 48 hrs before 50 μM tBHQ): identical under each dosing regimen | carmustine-mediated induction of luciferase activity ([6]; Carmustine 100 μM + BTB09463 5 μM or Retinoic acid 5 μM, 24 hours): completely suppress

CC(C)(C)c1cc(O)ccc1O [tBHQ, tert-butylhydroquinone]
Ratio (tBHQ/DMSO) [7]: 3.6 ± 0.5 | Relative luciferase activity (tBHQ treated) [7, 15]: 140.7 ± 19.6 | Ratio (tBHQ/DMSO) [8]: 2.7 ± 0.1 | Relative luciferase activity (tBHQ treated) [8, 15]: 1171.6 ± 8.8 | Ratio (tBHQ/DMSO) [9]: 2.8 ± 0.9 | Relative luciferase activity (tBHQ treated) [9, 15]: 2.8 ± 0.9 | induction of AKR1C1 mRNA [10]: approximately 15 fold | maximal increase of GFP reporter [11]: 3 fold | increase of luciferase activity ([12]; 1 μM tBHQ, 24 h): 2 fold | increase of luciferase activity ([12]; 5 μM tBHQ, 24 h): 5 fold | lag phase before increase of luciferase activity ([12]; 10 μM tBHQ alone): approximately 3 hour | increase of luciferase activity ([12]; 10 μM tBHQ, 8 h): 4 fold | increase of luciferase activity ([12]; 10 μM tBHQ, 18 h): 10 fold | induction of luciferase activity ([12]; 10 μM tBHQ, 50 ng pRS-hNrf2 DNA per well (Nrf2 RNAi)): 8 fold | induction of luciferase activity ([12]; 10 μM tBHQ, 100 ng pRS-hNrf2 DNA per well (Nrf2 RNAi)): 6 fold | induction of luciferase activity ([12]; 10 μM tBHQ, control cells, no DNA in the transfection mix): 13 fold and 10 fold | inducible level of luciferase activity ([12]; 10 μM tBHQ, transfection with 50 ng pHyg-EF-hNrf2 per well): 19 fold | inducible level of luciferase activity ([12]; 10 μM tBHQ, transfection with 100 ng pHyg-EF-hNrf2): 25 fold | induction of luciferase expression compared to DMSO control ([12]; 50 μM tBHQ, 24 h): 14 fold | CD, concentration of inducting agent that doubled luciferase reporter activity ([12]; AREc32, 24 h, DMSO set at 1): 1 µM | Ratio (tBHQ/DMSO) ([13]; 50 μM tBHQ): 52.0 ± 11.9 | Relative luciferase activity (tBHQ treated) ([13]; 50 μM tBHQ, HepG2 cells treated with DMSO set at 1): 2276.1 ± 521.1 | induction of luciferase activity ([13]; overnight treatment with 50 μM tBHQ): up to 50 fold

Reference: patent US20120309087A1, “CANCER THERAPY” (University Court of The University of Dundee, priority 2006, published 2012)
